Measured values from PubChem BioAssay (NCI).
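Briefly, cells in 96-well plates were exposed to five compound concentrations for 48 h, and endpoints were estimated by linear interpolation. At the GI50, growth is halved. TGI marks complete inhibition of growth.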

Columns and labels:
Test in all cases: growth of human tumour cells (NCI), 48 h
LOX IMVI melanoma = system: LOX IMVI melanoma
COLO 205 colon = system: COLO 205 colon
SN12C renal = system: SN12C renal
786-0 renal = system: 786-0 renal
IGROV1 ovarian = system: IGROV1 ovarian
HCT-15 colon = system: HCT-15 colon
NCI-H460 lung = system: NCI-H460 lung
M19-MEL melanoma = system: M19-MEL melanoma
HL-60(TB) leukemia = system: HL-60(TB) leukemia
SW-620 colon = system: SW-620 colon

Compound: c1ccc(CN2CCc3[nH]c4ccccc4c3C2)cc1
- TGI (LOX IMVI melanoma): 40.7 µM
- TGI (COLO 205 colon): 31.9 µM
- TGI (SN12C renal): > 78.7 µM
- TGI (786-0 renal): 44.5 µM
- TGI (IGROV1 ovarian): > 79.5 µM
- TGI (HCT-15 colon): 62.6 µM
- TGI (NCI-H460 lung): 31 µM
- TGI (M19-MEL melanoma): > 82.1 µM
- TGI (HL-60(TB) leukemia): 46.3 µM
- TGI (SW-620 colon): 50 µM

Compound: CC[C@@]1(OC(=O)C(N)CCCCN)C(=O)OCc2c1cc1n(c2=O)Cc2cc3ccccc3nc2-1 (stereo partly drawn)
- TGI (LOX IMVI melanoma): 0.18 µM
- TGI (COLO 205 colon): 3.39 µM
- TGI (SN12C renal): 1.63 µM
- TGI (786-0 renal): 0.163 µM
- TGI (IGROV1 ovarian): 2.37 µM
- TGI (HCT-15 colon): 15.6 µM
- TGI (NCI-H460 lung): 0.372 µM
- TGI (M19-MEL melanoma): 0.509 µM
- TGI (HL-60(TB) leukemia): 0.127 µM
- TGI (SW-620 colon): > 28.7 µM

Compound: CN(C)CCC(/C=C/c1ccccc1)=N\Nc1ccc(Cl)c(Cl)c1
- TGI (LOX IMVI melanoma): 3.71 µM
- TGI (COLO 205 colon): 7.23 µM
- TGI (SN12C renal): 13.7 µM
- TGI (786-0 renal): 9.26 µM
- TGI (IGROV1 ovarian): 10.1 µM
- TGI (HCT-15 colon): 12.9 µM
- TGI (NCI-H460 lung): 4.25 µM
- TGI (M19-MEL melanoma): 15 µM
- TGI (HL-60(TB) leukemia): 7.31 µM
- TGI (SW-620 colon): 13.3 µM

Compound: N#Cc1ccc(/C=C(/C(=O)c2ccccc2)c2ccccc2)cc1
- TGI (LOX IMVI melanoma): 10.6 µM
- TGI (COLO 205 colon): 37.3 µM
- TGI (SN12C renal): 25 µM
- TGI (786-0 renal): 15.5 µM
- TGI (IGROV1 ovarian): > 57.4 µM
- TGI (HCT-15 colon): 30.4 µM
- TGI (NCI-H460 lung): 47.5 µM
- TGI (M19-MEL melanoma): 31.8 µM
- TGI (HL-60(TB) leukemia): 9.81 µM
- TGI (SW-620 colon): 7.31 µM

Compound: O=c1[nH]c2cc([N+](=O)[O-])ccc2nc1/C(=N/Nc1ccccc1)C(O)c1ccco1 (stereo not drawn)
- TGI (LOX IMVI melanoma): > 100 µM
- TGI (COLO 205 colon): > 100 µM
- TGI (SN12C renal): > 100 µM
- TGI (786-0 renal): > 100 µM
- TGI (IGROV1 ovarian): > 100 µM
- TGI (HCT-15 colon): > 100 µM
- TGI (NCI-H460 lung): > 100 µM
- TGI (M19-MEL melanoma): > 100 µM
- TGI (HL-60(TB) leukemia): > 100 µM
- TGI (SW-620 colon): > 100 µM

Compound: C[N+](C)(C)CC1CCC(C[N+](C)(C)C)C1=O (stereo not drawn)
- TGI (LOX IMVI melanoma): 10.3 µM
- GI50 (COLO 205 colon): 0.457 µM
- TGI (COLO 205 colon): 1.58 µM
- TGI (SN12C renal): 8.18 µM
- TGI (786-0 renal): 4.06 µM
- TGI (IGROV1 ovarian): 13.6 µM
- TGI (HCT-15 colon): 4.18 µM
- TGI (NCI-H460 lung): 62.8 µM
- TGI (M19-MEL melanoma): 3.83 µM
- GI50 (HL-60(TB) leukemia): 0.309 µM
- TGI (HL-60(TB) leukemia): 0.995 µM
- GI50 (SW-620 colon): 1.18 µM
- TGI (SW-620 colon): 2.86 µM

Compound: CC(C)c1ccc(C2NC(=S)NC3=C2c2ccccc2C3=O)cc1 (stereo not drawn)
- TGI (LOX IMVI melanoma): 35.1 µM
- TGI (COLO 205 colon): > 59.2 µM
- TGI (SN12C renal): > 61.4 µM
- TGI (786-0 renal): > 60 µM
- TGI (IGROV1 ovarian): > 54.6 µM
- TGI (HCT-15 colon): > 51.9 µM
- TGI (NCI-H460 lung): > 67.3 µM
- TGI (M19-MEL melanoma): > 100 µM
- TGI (HL-60(TB) leukemia): 32.5 µM
- TGI (SW-620 colon): > 78.2 µM

Compound: O=C1/C(=C/c2ccc3c(c2)OCCO3)CCC/C1=C\c1ccc2c(c1)OCCO2
- TGI (LOX IMVI melanoma): > 100 µM
- TGI (COLO 205 colon): 46.8 µM
- TGI (SN12C renal): 54.9 µM
- TGI (786-0 renal): > 100 µM
- TGI (IGROV1 ovarian): > 100 µM
- TGI (HCT-15 colon): > 100 µM
- TGI (NCI-H460 lung): 65.6 µM
- TGI (M19-MEL melanoma): 81.9 µM
- TGI (HL-60(TB) leukemia): 56.9 µM
- TGI (SW-620 colon): > 100 µM

Compound: C1OC1CN1CCN(CC2CO2)CC1 (stereo not drawn)
- TGI (LOX IMVI melanoma): > 100 µM
- TGI (COLO 205 colon): > 100 µM
- TGI (SN12C renal): > 100 µM
- TGI (786-0 renal): > 100 µM
- TGI (IGROV1 ovarian): > 100 µM
- TGI (HCT-15 colon): > 100 µM
- TGI (NCI-H460 lung): > 100 µM
- TGI (M19-MEL melanoma): > 100 µM
- TGI (HL-60(TB) leukemia): > 88.7 µM
- TGI (SW-620 colon): > 100 µM

Compound: O=C(O)[C@@H]1OCCOCCO[C@@H](C(=O)O)[C@H](C(=O)O)OCCOCCO[C@H]1C(=O)O
- TGI (LOX IMVI melanoma): > 100 µM
- TGI (COLO 205 colon): > 100 µM
- TGI (SN12C renal): > 100 µM
- TGI (786-0 renal): > 100 µM
- TGI (IGROV1 ovarian): > 100 µM
- TGI (HCT-15 colon): > 100 µM
- TGI (NCI-H460 lung): > 100 µM
- TGI (M19-MEL melanoma): > 100 µM
- TGI (HL-60(TB) leukemia): 38.4 µM
- TGI (SW-620 colon): > 90.1 µM

Compound: CCCCCCCCOCC(O)CO (stereo not drawn)
- TGI (LOX IMVI melanoma): > 100 µM
- TGI (COLO 205 colon): > 100 µM
- TGI (SN12C renal): > 100 µM
- TGI (786-0 renal): > 100 µM
- TGI (IGROV1 ovarian): > 100 µM
- TGI (HCT-15 colon): > 100 µM
- TGI (NCI-H460 lung): > 100 µM
- TGI (M19-MEL melanoma): > 100 µM
- TGI (HL-60(TB) leukemia): > 100 µM
- TGI (SW-620 colon): > 100 µM

Compound: C[P+](C)(C)C
- TGI (LOX IMVI melanoma): > 100 µM
- TGI (COLO 205 colon): > 100 µM
- TGI (SN12C renal): > 100 µM
- TGI (786-0 renal): > 100 µM
- TGI (IGROV1 ovarian): > 100 µM
- TGI (HCT-15 colon): > 100 µM
- TGI (NCI-H460 lung): > 100 µM
- TGI (M19-MEL melanoma): > 100 µM
- TGI (HL-60(TB) leukemia): > 100 µM
- TGI (SW-620 colon): > 100 µM

Compound: C/C(=N\NC(N)=S)c1ccc(C)c(C)c1
- TGI (LOX IMVI melanoma): > 100 µM
- TGI (COLO 205 colon): > 100 µM
- TGI (SN12C renal): > 100 µM
- TGI (786-0 renal): > 100 µM
- TGI (IGROV1 ovarian): > 100 µM
- TGI (HCT-15 colon): > 100 µM
- TGI (NCI-H460 lung): > 100 µM
- TGI (M19-MEL melanoma): > 100 µM
- TGI (HL-60(TB) leukemia): 75.4 µM
- TGI (SW-620 colon): > 100 µM

Compound: CCOC(=O)C1C=C2O[C@@H]3OC4(CCCCC4)O[C@@H]3C2C2C(=O)CCC(=O)[C@@]12C(=O)OC (stereo partly drawn)
- TGI (LOX IMVI melanoma): > 100 µM
- TGI (COLO 205 colon): > 100 µM
- TGI (SN12C renal): > 100 µM
- TGI (786-0 renal): > 100 µM
- TGI (IGROV1 ovarian): > 100 µM
- TGI (HCT-15 colon): > 100 µM
- TGI (NCI-H460 lung): > 100 µM
- TGI (M19-MEL melanoma): > 100 µM
- TGI (HL-60(TB) leukemia): > 100 µM
- TGI (SW-620 colon): > 100 µM

Compound: O=[P+](O)c1ccccn1
- TGI (LOX IMVI melanoma): > 100 µM
- TGI (COLO 205 colon): > 100 µM
- TGI (SN12C renal): > 100 µM
- TGI (786-0 renal): > 100 µM
- TGI (IGROV1 ovarian): > 100 µM
- TGI (HCT-15 colon): > 100 µM
- TGI (NCI-H460 lung): > 100 µM
- TGI (M19-MEL melanoma): > 100 µM
- TGI (HL-60(TB) leukemia): > 100 µM
- TGI (SW-620 colon): > 100 µM

Compound: Cc1cccc(C)c1NC(=O)CCC/C(CC(=O)c1ccc(F)cc1)=N\NC(=O)C(=O)NN
- TGI (LOX IMVI melanoma): > 100 µM
- TGI (COLO 205 colon): > 100 µM
- TGI (SN12C renal): > 100 µM
- TGI (786-0 renal): > 100 µM
- TGI (IGROV1 ovarian): > 100 µM
- TGI (HCT-15 colon): > 100 µM
- TGI (NCI-H460 lung): > 100 µM
- TGI (M19-MEL melanoma): > 100 µM
- TGI (HL-60(TB) leukemia): > 100 µM
- TGI (SW-620 colon): > 100 µM
